Experimental data as given in ChEMBL document CHEMBL3045195, “Comparison of the activity of non-steroidal ecdysone agonists between dipteran and lepidopteran insects, using cell-based EcR reporter assays” (Pest Manag Sci, 2010).
Activity calls are given as the source filed them. The calls are words filed in the database; no cut-off is given here.

Columns and labels:
[1] = biological target: T1, Ecdysone receptor (Drosophila melanogaster) (UniProt P34021+P20153); assay: (§1) Agonist activity at ecdysone receptor in Drosophila melanogaster S2 cells after 24 hr by luciferase reporter gene assay; assay type: cell-based
[2] = biological target: T2, Ecdysone receptor (Bombyx mori) (UniProt P49881); assay: (§2) Agonist activity at ecdysone receptor in Bombyx mori Bm5 cells after 24 hr by luciferase reporter gene assay; assay type: cell-based
T2 sequence (whole entry): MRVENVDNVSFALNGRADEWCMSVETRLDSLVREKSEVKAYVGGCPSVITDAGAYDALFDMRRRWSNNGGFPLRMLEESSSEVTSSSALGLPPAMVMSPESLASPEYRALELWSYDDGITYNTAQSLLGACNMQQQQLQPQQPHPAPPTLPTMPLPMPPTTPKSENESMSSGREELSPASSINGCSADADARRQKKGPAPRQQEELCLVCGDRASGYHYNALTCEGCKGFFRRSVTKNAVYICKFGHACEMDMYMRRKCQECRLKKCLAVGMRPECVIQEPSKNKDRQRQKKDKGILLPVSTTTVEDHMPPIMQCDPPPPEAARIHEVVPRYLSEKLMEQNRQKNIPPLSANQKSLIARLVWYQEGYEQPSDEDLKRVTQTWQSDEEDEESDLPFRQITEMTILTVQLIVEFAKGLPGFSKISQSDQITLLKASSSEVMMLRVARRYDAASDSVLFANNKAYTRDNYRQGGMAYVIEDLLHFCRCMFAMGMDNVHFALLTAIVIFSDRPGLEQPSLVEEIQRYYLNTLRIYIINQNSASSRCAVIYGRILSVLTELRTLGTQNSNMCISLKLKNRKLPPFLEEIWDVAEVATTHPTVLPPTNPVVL

[3] = biological target: T1, Ecdysone receptor (Drosophila melanogaster); assay: Agonist activity at ecdysone receptor in Drosophila melanogaster S2 cells at 100 uM after 24 hr by luciferase reporter gene assay relative to 20-hydroxyecdysone; assay type: cell-based
[4] = biological target: T3, Ecdysone receptor (Drosophila melanogaster, UniProt P20153+P34021); assay: as §1; assay type: cell-based
T3 sequence (P34021 whole entry): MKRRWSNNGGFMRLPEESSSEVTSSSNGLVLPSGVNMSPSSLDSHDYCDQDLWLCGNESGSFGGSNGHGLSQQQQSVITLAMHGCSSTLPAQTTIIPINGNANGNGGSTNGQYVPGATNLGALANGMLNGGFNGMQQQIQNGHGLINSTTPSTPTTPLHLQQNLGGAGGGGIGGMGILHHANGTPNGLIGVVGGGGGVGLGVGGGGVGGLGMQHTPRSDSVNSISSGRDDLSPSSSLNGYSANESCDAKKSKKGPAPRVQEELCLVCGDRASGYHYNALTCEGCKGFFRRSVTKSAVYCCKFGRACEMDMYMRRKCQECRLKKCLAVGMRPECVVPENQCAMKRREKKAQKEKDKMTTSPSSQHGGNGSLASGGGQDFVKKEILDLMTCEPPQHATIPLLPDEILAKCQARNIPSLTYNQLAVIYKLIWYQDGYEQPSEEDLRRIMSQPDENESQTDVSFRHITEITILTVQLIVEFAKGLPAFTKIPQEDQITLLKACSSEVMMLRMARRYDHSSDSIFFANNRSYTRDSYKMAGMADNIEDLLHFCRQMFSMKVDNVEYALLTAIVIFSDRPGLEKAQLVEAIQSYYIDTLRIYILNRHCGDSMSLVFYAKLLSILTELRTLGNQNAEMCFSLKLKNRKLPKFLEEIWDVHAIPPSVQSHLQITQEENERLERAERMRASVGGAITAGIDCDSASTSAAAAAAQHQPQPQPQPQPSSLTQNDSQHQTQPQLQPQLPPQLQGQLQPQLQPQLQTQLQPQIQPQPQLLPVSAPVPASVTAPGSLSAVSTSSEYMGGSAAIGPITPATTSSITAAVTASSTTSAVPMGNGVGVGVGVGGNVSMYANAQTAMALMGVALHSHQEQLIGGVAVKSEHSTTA
T3 sequence (P20153 whole entry): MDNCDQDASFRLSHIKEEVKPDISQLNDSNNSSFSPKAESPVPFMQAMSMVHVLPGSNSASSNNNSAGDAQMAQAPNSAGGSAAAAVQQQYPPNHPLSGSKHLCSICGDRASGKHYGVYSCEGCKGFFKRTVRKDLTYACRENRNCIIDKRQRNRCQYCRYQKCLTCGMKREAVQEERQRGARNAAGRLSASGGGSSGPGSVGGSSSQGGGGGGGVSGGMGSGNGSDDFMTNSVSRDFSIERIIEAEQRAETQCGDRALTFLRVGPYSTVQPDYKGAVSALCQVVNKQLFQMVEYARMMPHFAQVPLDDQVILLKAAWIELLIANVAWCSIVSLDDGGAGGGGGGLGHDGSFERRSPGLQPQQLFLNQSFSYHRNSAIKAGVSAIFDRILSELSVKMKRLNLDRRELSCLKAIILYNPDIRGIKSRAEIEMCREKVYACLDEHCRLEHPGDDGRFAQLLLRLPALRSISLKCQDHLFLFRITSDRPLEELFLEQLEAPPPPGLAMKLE

[5] = biological target: T4, Ecdysone receptor (Bombyx mori, UniProt P49881); assay: as §2; assay type: cell-based
T4 sequence (P49881 whole entry): T2 sequence (whole entry)

[6] = biological target: T3, Ecdysone receptor; assay: Agonist activity at ecdysone receptor in Drosophila melanogaster B2 cells assessed as reduction in cell density
[7] = biological target: T1, Ecdysone receptor (Drosophila melanogaster); assay: Agonist activity at ecdysone receptor in Drosophila melanogaster S2 cells at 10 uM after 24 hr by luciferase reporter gene assay relative to 20-hydroxyecdysone; assay type: cell-based
[8] = Cytotoxicity against Drosophila melanogaster S2 cells at 10 to 100 uM after 24 hr by CellTiter assay; assay type: cell-based; conditions: s2, 24 h
[9] = biological target: Ecdysone receptor (Aedes aegypti) (UniProt P49880+Q9GSG8); assay: Agonist activity at Aedes aegypti ecdysone receptor expressed in mammalian cells by reporter gene assay relative to control; assay type: cell-based
[10] = biological target: T5, Ecdysone receptor (Aedes aegypti, UniProt P49880+Q9GSG8); assay: Agonist activity at Aedes aegypti ecdysone receptor expressed in mammalian cells by reporter gene assay; assay type: cell-based
T5 sequence (P49880 whole entry): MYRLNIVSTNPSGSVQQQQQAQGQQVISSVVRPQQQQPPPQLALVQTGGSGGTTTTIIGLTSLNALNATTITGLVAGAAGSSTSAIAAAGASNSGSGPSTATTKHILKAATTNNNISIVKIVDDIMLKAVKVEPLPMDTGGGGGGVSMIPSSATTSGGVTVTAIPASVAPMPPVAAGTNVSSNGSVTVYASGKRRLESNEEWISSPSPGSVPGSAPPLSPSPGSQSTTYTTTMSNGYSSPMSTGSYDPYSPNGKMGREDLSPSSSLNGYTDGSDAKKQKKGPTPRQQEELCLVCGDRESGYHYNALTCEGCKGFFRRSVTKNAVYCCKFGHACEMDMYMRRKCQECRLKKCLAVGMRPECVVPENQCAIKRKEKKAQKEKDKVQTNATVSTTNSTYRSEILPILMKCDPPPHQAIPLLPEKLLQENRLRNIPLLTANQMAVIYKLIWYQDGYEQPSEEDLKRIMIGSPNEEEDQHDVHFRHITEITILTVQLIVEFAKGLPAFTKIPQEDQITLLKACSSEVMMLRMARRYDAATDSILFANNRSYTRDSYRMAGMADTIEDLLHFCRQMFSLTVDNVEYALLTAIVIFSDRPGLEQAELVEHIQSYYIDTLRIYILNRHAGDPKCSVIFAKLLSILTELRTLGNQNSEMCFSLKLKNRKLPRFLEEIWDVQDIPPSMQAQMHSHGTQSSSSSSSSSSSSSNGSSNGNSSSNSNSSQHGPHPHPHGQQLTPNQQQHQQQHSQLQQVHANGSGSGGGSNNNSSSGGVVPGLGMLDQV
T5 sequence (Q9GSG8 whole entry): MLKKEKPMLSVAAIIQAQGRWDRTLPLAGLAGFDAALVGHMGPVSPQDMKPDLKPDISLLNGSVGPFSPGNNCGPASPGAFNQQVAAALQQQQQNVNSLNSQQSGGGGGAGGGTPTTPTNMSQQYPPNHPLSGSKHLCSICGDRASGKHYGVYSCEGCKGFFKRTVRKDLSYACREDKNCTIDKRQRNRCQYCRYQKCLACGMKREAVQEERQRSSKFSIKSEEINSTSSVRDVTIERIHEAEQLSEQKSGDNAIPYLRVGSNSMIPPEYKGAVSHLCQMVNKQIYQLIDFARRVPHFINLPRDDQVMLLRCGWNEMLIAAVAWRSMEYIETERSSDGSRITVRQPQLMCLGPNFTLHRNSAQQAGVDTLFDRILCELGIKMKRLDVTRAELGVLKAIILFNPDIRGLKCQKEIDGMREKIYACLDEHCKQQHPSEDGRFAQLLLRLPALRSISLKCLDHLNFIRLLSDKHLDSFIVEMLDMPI

[11] = biological target: T3, Ecdysone receptor; assay: Agonist activity at ecdysone receptor in Drosophila melanogaster Kc cells after 24 hr by luciferase reporter gene assay

Cc1ccc(N(C(=O)c2ccc(Cl)cc2)C2CC(C)N(C(=O)c3ccc(Cl)cc3)c3ccc(C)cc32)cc1 (stereo not given)
pEC50 [1]: inactive
pEC50 [2]: inactive

CC(C)(C)N(NC(=O)c1cccc(Cl)c1)C(=O)c1ccccc1Cl
Efficacy [3]: 80%
EC50 [4]: 16600 nM
EC50 [5]: 155 nM
EC50 [6]: 1200 nM

CC(C)(C)N(NC(=O)c1ccccc1)C(=O)c1ccccc1I
Efficacy [3]: 52%
EC50 [4]: 91200 nM
EC50 [5]: 105 nM
EC50 [6]: 1200 nM

Cc1cc(C)cc(C(=O)N(NC(=O)c2ccc(Cl)cc2)C(C)(C)C)c1
Efficacy [7]: 42%
EC50 [4]: 16600 nM
EC50 [5]: 19.1 nM

CC(C)(C)N(NC(=O)c1ccccc1)C(=O)c1ccccc1C(F)(F)F
Efficacy [3]: 63%
EC50 [4]: 33900 nM
EC50 [5]: 631 nM
EC50 [6]: 3630 nM

CC(C)(C)N(NC(=O)c1ccccc1)C(=O)c1ccccc1Br
Efficacy [3]: 55%
EC50 [4]: 81300 nM
EC50 [5]: 170 nM
EC50 [6]: 794 nM

CC(C)(C)N(NC(=O)c1ccc(Cl)cc1)C(=O)c1ccccc1 [HALOFENOZIDE]
Activity [8]: Non-toxic
Efficacy [3]: 57%
EC50 [4]: 7760 nM
EC50 [5]: 87.1 nM

CC1CC(Nc2ccc(F)cc2)c2cc(F)ccc2N1C(=O)c1ccc(Cl)cc1 (stereo not given)
Efficacy [9]: 70%
Efficacy [3]: 12%
EC50 [4]: > 100000 nM
EC50 [10]: 646 nM

CN(C(=O)c1ccccc1)N(C)C(=O)c1ccccc1
pEC50 [1]: inactive
EC50 [5]: > 100000 nM

CCCCCC(=O)N(NC(=O)c1cc(C)cc(C)c1)C(C)(C)C
pEC50 [1]: inactive
EC50 [5]: 8710 nM

CCCCCCCCCC(=O)NN(C(=O)c1cc(C)cc(C)c1)C(C)(C)C
pEC50 [1]: inactive
EC50 [5]: 1550 nM

CC(C)(C)N(NC(=O)c1ccc(-c2ccccc2)cc1)C(=O)c1ccccc1Cl
EC50 [11]: > 100000 nM

CC1CCc2ccccc2N1C(=O)c1ccc(Cl)cc1 (stereo not given)
pEC50 [1]: inactive
pEC50 [2]: inactive

Cc1ccc(C(=O)NN(C(=O)c2cc(C)cc(C)c2)C(C)(C)C)cc1
Efficacy [7]: 46%
EC50 [4]: 11200 nM
EC50 [5]: 12 nM

CC(C)(C)N(NC(=O)c1ccccc1)C(=O)c1ccccc1F
Efficacy [3]: 62%
EC50 [4]: 72400 nM
EC50 [5]: 309 nM
EC50 [6]: 6170 nM
